{"source": "patent US20260232767A1", "about": "“INTERLEUKIN-23 RECEPTOR ANTAGONIST PEPTIDES FOR USE IN THE TREATMENT OF PSORIASIS” (Janssen Pharmaceutica NV, priority 2023, published 2026)", "tested_on": "subjects with moderate-to-severe plaque psoriasis", "experiment": "PASI response, Example 1 16-week dose-ranging study", "assay_type": "in vivo, human", "conditions": "for Subjects achieving PASI 75: Week 4", "description": "The Psoriasis Area and Severity Index (PASI) is a system used for assessing and grading the severity of psoriatic lesions and their response to therapy. In the PASI system, the body is divided into four regions: the head, trunk, upper extremities, and lower extremities. Each of these areas is assessed and scored separately for erythema, induration, and scaling, which are each rated on a scale of 0 to 4 and extent of involvement on a scale of 0 to 6. The PASI produces a numeric score (a “PASI score”) that can range from 0 to 72. A higher score indicates more severe disease.\nThis was a randomized, double-blind, placebo-controlled, dose-ranging, parallel group, multicenter, interventional study in subjects with moderate-to-severe plaque psoriasis. A target of 240 subjects were enrolled in this study with 40 subjects planned per intervention group.\nClinician-reported outcomes including Psoriasis Area and Severity Index (PASI), Body Surface Area (BSA), Investigator's Global Assessment (IGA), Nail Psoriasis Area and Severity Index (NAPSI), Fingernail Physician's Global Assessment (f-PGA), Static Physician's Global Assessment of Genitalia (s-PGA-G), Physician's Global Assessment of Hands and/or Feet (hf-PGA), and Scalp Specific Investigator Global Assessment (ss-IGA) were obtained at Week 0, 8, and 16. PASI and IGA were also obtained at Weeks 1, 2, 4, and 12, and at Week 20, four weeks after the administration of the tablets has stopped.\nThe primary efficacy endpoint was the proportion of participants achieving a PASI 75 response at Week 16, defined as at least a 75% reduction from baseline in PASI total score.\nFor the primary analysis, composite strategy (non-responder imputation) was applied to address intercurrent event #1 (Discontinuation of study intervention due to lack of efficacy or due to an AE of worsening of psoriasis) and #2 (initiation of a protocol-prohibited medication or therapy that could improve psoriasis); and treatment policy strategy (observed data) was applied to intercurrent event #3 (Discontinuation of study intervention due to other reasons). Participants with missing data after application of ICEs are also considered as non-responders.\nIn addition to the response analysis, pairwise comparisons of each treatment group versus the placebo group were performed for the primary endpoint of PASI 75 at Week 16. Pairwise comparisons were not adjusted for multiplicity. The Cochran-Mantel-Haenszel chi-square statistic stratified by baseline weight category (≤90 kg, >90 kg) at a 2-sided significance level of 0.05 was used (Table 2).", "key": {"[1]": {"conditions": "25 mg QD, Week 16, trough plasma conc ≥Q3"}, "[2]": {"conditions": "50 mg QD, Week 16, peak plasma conc. <Q1, N=2"}, "[3]": {"conditions": "50 mg QD, Week 16, peak plasma conc. Q1 to <Q2, N=2"}, "[4]": {"conditions": "50 mg QD, Week 16, peak plasma conc. Q2 to <Q3, N=2"}, "[5]": {"conditions": "50 mg QD, Week 16, peak plasma conc. ≥Q3, N=2"}, "[6]": {"conditions": "50 mg QD, Week 16, trough plasma conc <Q1"}, "[7]": {"conditions": "50 mg QD, Week 16, trough plasma conc Q1 to <Q2"}, "[8]": {"conditions": "50 mg QD, Week 16, trough plasma conc Q2 to <Q3"}, "[9]": {"conditions": "50 mg QD, Week 16, trough plasma conc ≥Q3"}, "[10]": {"conditions": "100 mg BID, Week 16, peak plasma conc. <Q1, N=2"}, "[11]": {"conditions": "100 mg BID, Week 16, peak plasma conc. Q1 to <Q2, N=3"}, "[12]": {"conditions": "100 mg BID, Week 16, peak plasma conc. Q2 to <Q3, N=2"}, "[13]": {"conditions": "100 mg BID, Week 16, peak plasma conc. ≥Q3, N=3"}, "[14]": {"conditions": "100 mg BID, Week 16, trough plasma conc <Q1"}}, "data": [{"smiles": "CC(=O)NCCCC[C@@H]1NC(=O)[C@H](Cc2c[nH]c3c(C)cccc23)NC(=O)[C@H]([C@@H](C)O)NC(=O)[C@H](CC(N)=O)NC(=O)[C@@H](NC(C)=O)C(C)(C)SSC(C)(C)[C@@H](C(=O)N[C@@H](Cc2ccc(OCCN)cc2)C(=O)N[C@@H](Cc2ccc3ccccc3c2)C(=O)NC2(C(=O)N[C@@H](CCC(=O)O)C(=O)N[C@@H](CC(N)=O)C(=O)N[C@@H](Cc3cccnc3)C(=O)N(C)CC(N)=O)CCOCC2)NC1=O", "note": "[IL-23 receptor antagonist peptide, Ac-[Pen]*-N-T-[W(7-Me)]-[Lys(Ac)]-[Pen]*-Phe[4-(2-aminoethoxy)]-[2-Nal]-[THP]-E-N-[3-Pal]-Sarc-NH2 (*[Pen]-[Pen]* formdisulfidebond)]", "values": [{"measurement": "PASI 100% Improvement, subjects", "setting": "[1]", "value": "1 (16.7%)"}, {"measurement": "PASI ≥75% Improvement, subjects", "setting": "[1]", "value": "3 (50.0%)"}, {"measurement": "PASI ≥90% Improvement, subjects", "setting": "[1]", "value": "1 (16.7%)"}, {"measurement": "Subjects achieving PASI 75", "setting": "50 mg QD", "value": 16.3, "unit": "%"}, {"measurement": "PASI 75 treatment difference vs placebo", "setting": "50 mg QD, Week 16", "value": 48.8, "unit": "%"}, {"measurement": "PASI 90 treatment difference vs placebo", "setting": "50 mg QD, Week 16", "value": "48.8% (33.3%,"}, {"measurement": "PASI 100 treatment difference vs placebo", "setting": "50 mg QD, Week 16", "value": "25.6% (12.7%,"}, {"measurement": "Subjects achieving PASI 90", "setting": "50 mg QD, Week 16", "value": "22 (51.2%)"}, {"measurement": "Subjects achieving PASI 100", "setting": "50 mg QD, Week 16", "value": "11 (25.6%)"}, {"measurement": "PASI 75, %", "setting": "50 mg QD, Week 16, N=43", "value": 58.1, "unit": "%"}, {"measurement": "PASI 90, %", "setting": "50 mg QD, Week 16, N=43", "value": 51.2, "unit": "%"}, {"measurement": "PASI 100, %", "setting": "50 mg QD, Week 16, N=43", "value": 25.6, "unit": "%"}, {"measurement": "PASI 100% Improvement, n subjects", "setting": "[2]", "value": 0}, {"measurement": "PASI ≥75% Improvement, % subjects", "setting": "[2]", "value": "(50.0%)"}, {"measurement": "PASI ≥75% Improvement, n subjects", "setting": "[2]", "value": 1}, {"measurement": "PASI ≥90% Improvement, n subjects", "setting": "[2]", "value": 0}, {"measurement": "PASI 100% Improvement, % subjects", "setting": "[3]", "value": "(50.0%)"}, {"measurement": "PASI 100% Improvement, n subjects", "setting": "[3]", "value": 1}, {"measurement": "PASI ≥75% Improvement, % subjects", "setting": "[3]", "value": "(100.0%)"}, {"measurement": "PASI ≥75% Improvement, n subjects", "setting": "[3]", "value": 2}, {"measurement": "PASI ≥90% Improvement, % subjects", "setting": "[3]", "value": "(100.0%)"}, {"measurement": "PASI ≥90% Improvement, n subjects", "setting": "[3]", "value": 2}, {"measurement": "PASI 100% Improvement, n subjects", "setting": "[4]", "value": 0}, {"measurement": "PASI ≥75% Improvement, % subjects", "setting": "[4]", "value": "(50.0%)"}, {"measurement": "PASI ≥75% Improvement, n subjects", "setting": "[4]", "value": 1}, {"measurement": "PASI ≥90% Improvement, % subjects", "setting": "[4]", "value": "(50.0%)"}, {"measurement": "PASI ≥90% Improvement, n subjects", "setting": "[4]", "value": 1}, {"measurement": "PASI 100% Improvement, n subjects", "setting": "[5]", "value": 0}, {"measurement": "PASI ≥75% Improvement, % subjects", "setting": "[5]", "value": "(100.0%)"}, {"measurement": "PASI ≥75% Improvement, n subjects", "setting": "[5]", "value": 2}, {"measurement": "PASI ≥90% Improvement, % subjects", "setting": "[5]", "value": "(100.0%)"}, {"measurement": "PASI ≥90% Improvement, n subjects", "setting": "[5]", "value": 2}, {"measurement": "PASI 100% Improvement, subjects", "setting": "[6]", "value": "1 (20.0%)"}, {"measurement": "PASI ≥75% Improvement, subjects", "setting": "[6]", "value": "2 (40.0%)"}, {"measurement": "PASI ≥90% Improvement, subjects", "setting": "[6]", "value": "1 (20.0%)"}, {"measurement": "PASI 100% Improvement, subjects", "setting": "[7]", "value": "2 (40.0%)"}, {"measurement": "PASI ≥75% Improvement, subjects", "setting": "[7]", "value": "3 (60.0%)"}, {"measurement": "PASI ≥90% Improvement, subjects", "setting": "[7]", "value": "3 (60.0%)"}, {"measurement": "PASI 100% Improvement, subjects", "setting": "[8]", "value": "2 (40.0%)"}, {"measurement": "PASI ≥75% Improvement, subjects", "setting": "[8]", "value": "3 (60.0%)"}, {"measurement": "PASI ≥90% Improvement, subjects", "setting": "[8]", "value": "2 (40.0%)"}, {"measurement": "PASI 100% Improvement, subjects", "setting": "[9]", "value": "1 (20.0%)"}, {"measurement": "PASI ≥75% Improvement, subjects", "setting": "[9]", "value": "3 (60.0%)"}, {"measurement": "PASI ≥90% Improvement, subjects", "setting": "[9]", "value": "3 (60.0%)"}, {"measurement": "Subjects achieving PASI 75", "setting": "100 mg BID", "value": 23.8, "unit": "%"}, {"measurement": "Subjects achieving PASI 100", "setting": "100 mg BID, Week 8", "value": 11.9, "unit": "%"}, {"measurement": "PASI 75 treatment difference vs placebo", "setting": "100 mg BID, Week 16", "value": 69.4, "unit": "%"}, {"measurement": "PASI 90 treatment difference vs placebo", "setting": "100 mg BID, Week 16", "value": "57.3% (42.0%,"}, {"measurement": "PASI 100 treatment difference vs placebo", "setting": "100 mg BID, Week 16", "value": "40.5% (25.8%,"}, {"measurement": "Subjects achieving PASI 90", "setting": "100 mg BID, Week 16", "value": "(59.5%)"}, {"measurement": "PASI 75, %", "setting": "100 mg BID, Week 16, N=42", "value": 78.6, "unit": "%"}, {"measurement": "PASI 90, %", "setting": "100 mg BID, Week 16, N=42", "value": 59.5, "unit": "%"}, {"measurement": "PASI 100, %", "setting": "100 mg BID, Week 16, N=42", "value": 40.5, "unit": "%"}, {"measurement": "PASI 100% Improvement, % subjects", "setting": "[10]", "value": "(50.0%)"}, {"measurement": "PASI 100% Improvement, n subjects", "setting": "[10]", "value": 1}, {"measurement": "PASI ≥75% Improvement, n subjects", "setting": "[10]", "value": 2}, {"measurement": "PASI ≥90% Improvement, % subjects", "setting": "[10]", "value": "(100.0%)"}, {"measurement": "PASI ≥90% Improvement, n subjects", "setting": "[10]", "value": 2}, {"measurement": "PASI 100% Improvement, % subjects", "setting": "[11]", "value": "(33.3%)"}, {"measurement": "PASI 100% Improvement, n subjects", "setting": "[11]", "value": 1}, {"measurement": "PASI ≥75% Improvement, n subjects", "setting": "[11]", "value": 3}, {"measurement": "PASI ≥90% Improvement, % subjects", "setting": "[11]", "value": "(100.0%)"}, {"measurement": "PASI ≥90% Improvement, n subjects", "setting": "[11]", "value": 3}, {"measurement": "PASI 100% Improvement, % subjects", "setting": "[12]", "value": "(50.0%)"}, {"measurement": "PASI 100% Improvement, n subjects", "setting": "[12]", "value": 1}, {"measurement": "PASI ≥75% Improvement, n subjects", "setting": "[12]", "value": 1}, {"measurement": "PASI ≥90% Improvement, % subjects", "setting": "[12]", "value": "(50.0%)"}, {"measurement": "PASI ≥90% Improvement, n subjects", "setting": "[12]", "value": 1}, {"measurement": "PASI 100% Improvement, % subjects", "setting": "[13]", "value": "(66.7%)"}, {"measurement": "PASI 100% Improvement, n subjects", "setting": "[13]", "value": 2}, {"measurement": "PASI ≥75% Improvement, n subjects", "setting": "[13]", "value": 3}, {"measurement": "PASI ≥90% Improvement, % subjects", "setting": "[13]", "value": "(66.7%)"}, {"measurement": "PASI ≥90% Improvement, n subjects", "setting": "[13]", "value": 2}, {"measurement": "PASI 100% Improvement, subjects", "setting": "[14]", "value": "1 (25.0%)"}, {"measurement": "PASI ≥75% Improvement, subjects", "setting": "[14]", "value": "3 (75.0%)"}, {"measurement": "PASI ≥90% Improvement, subjects", "setting": "[14]", "value": 50.0, "unit": "%"}]}]}
